Measured values from US5789412A, “Piperazides derived from arylpiperazine, processes for their preparation, their use as medicaments and pharmaceutical compositions comprising them” (Pierre Fabre Medicament, priority 1994, dated 1998).
Where a name gives a salt, the structure may show the parent alone. Read-outs that look alike come from different tables or passages of the source.

Key:
human 5HT1Dβ receptor [1] = target: T1, human 5HT1Dβ receptor (Homo sapiens, UniProt P28222); test: Binding to human 5HT1Dβ receptor ([3H]-5CT displacement)
T1 construct: expressed in transfected cells; host or cells: CHO-K1
T1 sequence (P28222 whole entry): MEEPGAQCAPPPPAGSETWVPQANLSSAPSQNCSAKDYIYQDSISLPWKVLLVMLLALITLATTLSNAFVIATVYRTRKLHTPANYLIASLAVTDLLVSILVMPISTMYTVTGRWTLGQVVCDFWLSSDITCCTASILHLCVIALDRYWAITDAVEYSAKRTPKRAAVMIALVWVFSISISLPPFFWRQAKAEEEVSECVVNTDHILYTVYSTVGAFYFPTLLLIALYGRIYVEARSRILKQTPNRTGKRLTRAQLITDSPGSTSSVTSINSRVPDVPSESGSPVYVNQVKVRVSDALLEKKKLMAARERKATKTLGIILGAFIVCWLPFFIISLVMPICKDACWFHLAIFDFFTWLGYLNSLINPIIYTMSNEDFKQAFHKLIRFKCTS
Method: (§1) Human 5HT1Dα and 5HT1Dβ receptors were cloned according to the sequences published by M. Hamblin and M. Metcalf, Mol. Pharmacol., 40, 143 (1991) and Weinshenk et al., Proc. Natl. Acad. Sci. 89, 3630 (1992).
(§2) Transitory transfection and permanent transfection of the genes for these receptors was carried out in cell lines Cos-7 and CHO-K1 using an electroporator.
(§3) The binding of the derivatives of the present invention with the human 5HT1Dα, 5HT1Dβ and 5HT1A receptors was studied according to the method described by P. Pauwels and C. Palmier (Neuropharmacology, 33, 67, 1994).
(§4) The incubation media for these binding measurements comprise 0.4 ml of cell membrane preparation, 0.05 ml of a tritiated ligand [[3H]-5CT (final concentration: 2 nM) for the 5HT1Dα and 5HT1Dβ receptors and [3H]-8OH-DPAT (final concentration: 1 nM) for the 5HT1A receptor] and 0.05 ml of the test molecule (final concentrations of 0.1 nM to 1000 nM) or 10 μM (final concentration) of serotonin (5HT1Dα and 5HT1Dβ) or 1 μM (final concentration) of spiroxatrine (5HT1A).

human 5HT1Dβ receptor [2] = target: T1, human 5HT1Dβ receptor; test: Inhibition of forskolin-stimulated cyclic AMP formation mediated by human 5HT1Dβ receptor in transfected CHO-K1 cells (intrinsic agonist activity); type: cell-based
Method: as §1, §2
Inhibition of the formation of cyclic AMP (stimulated by forskolin) mediated by the human 5HT1Dβ receptor was studied in CHO-K1 cells transfected with the receptor according to the technique described beforehand for the 5HT1B receptor (P. Pauwels and C. Palmier, Neuropharmacology, 33, 67, 1994).
**Intrinsic agonist acitivity (inhibition of the formation of cyclic AMP
induced by forskolin in CHO--K1 cells).

human 5HT1Dα receptor = target: T2, human 5HT1Dα receptor (Homo sapiens, UniProt P28221); test: Binding to human 5HT1Dα receptor ([3H]-5CT displacement)
T2 construct: expressed in transfected cells
T2 sequence (P28221 whole entry): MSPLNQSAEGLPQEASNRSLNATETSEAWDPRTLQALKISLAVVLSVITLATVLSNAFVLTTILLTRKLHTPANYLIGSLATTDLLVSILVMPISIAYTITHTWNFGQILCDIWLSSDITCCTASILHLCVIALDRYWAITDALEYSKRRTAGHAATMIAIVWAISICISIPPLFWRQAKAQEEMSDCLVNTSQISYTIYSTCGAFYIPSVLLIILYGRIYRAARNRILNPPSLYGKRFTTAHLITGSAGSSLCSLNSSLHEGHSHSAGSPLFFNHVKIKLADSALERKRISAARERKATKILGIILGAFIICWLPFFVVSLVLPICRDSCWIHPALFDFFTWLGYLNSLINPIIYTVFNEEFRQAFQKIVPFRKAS
Method: as §1, §2, §3, §4

human 5HT1A receptor = target: T3, human 5HT1A receptor (Homo sapiens, UniProt P08908); test: Binding to human 5HT1A receptor ([3H]-8OH-DPAT displacement, HeLa HA7 cell line); settings: read-out: 5HT1A Ki (affinity for the receptors concerned)
T3 construct: host or cells: HeLa HA7
T3 sequence (P08908 1-422): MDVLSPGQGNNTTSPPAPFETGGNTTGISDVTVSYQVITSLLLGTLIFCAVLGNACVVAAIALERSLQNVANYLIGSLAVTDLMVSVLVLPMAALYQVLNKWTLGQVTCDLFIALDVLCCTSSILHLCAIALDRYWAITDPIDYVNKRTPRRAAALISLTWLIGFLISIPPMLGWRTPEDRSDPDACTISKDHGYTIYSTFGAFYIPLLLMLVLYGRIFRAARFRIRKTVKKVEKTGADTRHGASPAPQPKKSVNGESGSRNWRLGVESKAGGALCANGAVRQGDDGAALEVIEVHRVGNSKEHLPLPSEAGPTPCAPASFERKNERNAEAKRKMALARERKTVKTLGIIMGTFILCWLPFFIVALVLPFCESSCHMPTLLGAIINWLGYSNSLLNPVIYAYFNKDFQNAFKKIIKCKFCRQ
Description: The binding of the derivatives of the present invention with the human 5HT1Dα, 5HT1Dβ and 5HT1A receptors was studied according to the method described by P. Pauwels and C.

[3] = [3H]-5CT 2 nM, cell membrane preparation, read-out: 5HT1Dβ Ki (affinity for the receptors concerned)
[4] = CHO-K1 cells, forskolin stimulated, read-out: 5HT1Dβ EC50 (intrinsic agonist activity, inhibition of the formation of cyclic AMP induced by forskolin)
[5] = [3H]-5CT 2 nM, cell membrane preparation, read-out: 5HT1Dα Ki (affinity for the receptors concerned)
[6] = [3H]-8OH-DPAT 1 nM, HeLa HA7 cell line

COc1ccc(NC(=O)N2CCN(c3ccc([N+](=O)[O-])cc3)CC2)cc1N1CCN(C)CC1 [Example 6, N-[4-[4-Methoxy-3-(4-methylpiperazin-1-yl)phenyl]-4-(p-nitrophenyl)piperazin-1-ylamide fumarate]
Ki (human 5HT1Dβ receptor [1]; [3]): 5 nM | EC50 (human 5HT1Dβ receptor [2]; [4]): > 1000 nM | Ki (human 5HT1Dα receptor; [5]): 114 nM | Ki (human 5HT1A receptor; [6]): 457 nM

COc1ccc(N2CCN(C(=O)Nc3ccc(OC)c(N4CCN(C)CC4)c3)CC2)cc1 [Example 3, fumarate]
Ki (human 5HT1Dβ receptor [1]; [3]): 8.4 nM | EC50 (human 5HT1Dβ receptor [2]; [4]): > 1000 nM | Ki (human 5HT1Dα receptor; [5]): 230 nM | Ki (human 5HT1A receptor; [6]): 1000 nM

COc1ccc(NC(=O)N2CCN(c3ccccc3C)CC2)cc1N1CCN(C)CC1 [Example 1, N-[4-methoxy-3-(4-methylpiperazin-1-yl)phenyl]-4-(o-tolylpiperazin-1-ylamide fumarate]
Ki (human 5HT1Dβ receptor [1]; [3]): 2.3 nM | EC50 (human 5HT1Dβ receptor [2]; [4]): > 1000 nM | Ki (human 5HT1Dα receptor; [5]): 48 nM | Ki (human 5HT1A receptor; [6]): 396 nM

CN1CCN(c2cccc3ccc(OC(=O)N4CCN(c5ccccc5)CC4)cc23)CC1 [Example 19, 8-(4-Methylpiperazin-1-yl)naphthalen-2-yl 4-phenylpiperazin-1-yloate]
Ki (human 5HT1Dβ receptor [1]): 0.5 nM | EC50 (human 5HT1Dβ receptor [2]): > 1000 nM | Ki (human 5HT1Dα receptor): 2.8 nM | Ki (human 5HT1A receptor; [6]): 16 nM

COc1ccc(NC(=O)N2CCN(c3cccc(C)c3C)CC2)cc1N1CCN(C)CC1 [Example 5, fumarate]
Ki (human 5HT1Dβ receptor [1]; [3]): 1.2 nM | EC50 (human 5HT1Dβ receptor [2]; [4]): > 1000 nM | Ki (human 5HT1Dα receptor; [5]): 42 nM | Ki (human 5HT1A receptor; [6]): 557 nM

COc1ccc(NC(=O)N2CCN(c3ccc4c(c3)OCO4)CC2)cc1N1CCN(C)CC1 [Example 7, N-[4-Methoxy-3-(4-methylpiperazin-1-yl)phenyl]-4-(3,4-methylenedioxy)phenylpiperazin-1-ylamide difumarate]
Ki (human 5HT1Dβ receptor [1]; [3]): 8.2 nM | EC50 (human 5HT1Dβ receptor [2]; [4]): > 1000 nM | Ki (human 5HT1Dα receptor; [5]): 140 nM | Ki (human 5HT1A receptor; [6]): 786 nM

COc1ccc(NC(=O)N2CCN(c3ccccc3OC)CC2)cc1N1CCN(C)CC1 [Example 2, N-[4-Methoxy-3-(4-methylpiperazin-1-yl)phenyl]-4-(o-methoxyphenyl)piperazin-1-ylamide fumarate]
Ki (human 5HT1Dβ receptor [1]; [3]): 2 nM | EC50 (human 5HT1Dβ receptor [2]; [4]): > 1000 nM | Ki (human 5HT1Dα receptor; [5]): 68 nM

COc1ccc(NCC(=O)N2CCN(c3ccccc3C)CC2)cc1N1CCN(C)CC1 [Example 12, 2-[4-Methoxy-3-(4-methylpiperazin-1-yl)phenylamino]-1-(4-o-tolylpiperazin-1-yl)ethanone fumarate]
Ki (human 5HT1Dβ receptor [1]; [3]): 28 nM | EC50 (human 5HT1Dβ receptor [2]; [4]): > 1000 nM | Ki (human 5HT1Dα receptor; [5]): 420 nM | Ki (human 5HT1A receptor): 3000 nM

COc1ccc(NC(=O)N2CCN(c3ccccc3C#N)CC2)cc1N1CCN(C)CC1 [Example 8, N-[4-Methoxy-3-(4-methylpiperazin-1-yl)phenyl]-4-(o-cyanophenyl)piperazin-1-ylamide fumarate]
Ki (human 5HT1Dβ receptor [1]; [3]): 11.2 nM | EC50 (human 5HT1Dβ receptor [2]; [4]): > 1000 nM | Ki (human 5HT1Dα receptor; [5]): 120 nM | Ki (human 5HT1A receptor; [6]): 714 nM

Cc1ccccc1N1CCN(C(=O)COc2ccc3cccc(N4CCN(C)CC4)c3c2)CC1 [Example 16, 2-[8-(4-Methylpiperazin-1-yl)naphthalen-2-yloxy]-1-(4-o-tolylpiperazin-1-yl)ethanone]
Ki (human 5HT1Dβ receptor [1]; [3]): 0.28 nM | EC50 (human 5HT1Dβ receptor [2]; [4]): > 1000 nM | Ki (human 5HT1Dα receptor; [5]): 0.68 nM | Ki (human 5HT1A receptor; [6]): 50 nM
